The values that follow come from US11254686B1 (Corvus Pharmaceuticals, Inc., priority 2017, dated 2022).

pIC50: −log10 of the molar value. Where only a bound is given, the exact number is not on record here.

The target of one assay is adenosine A2B receptor (Homo sapiens (Human), UniProt P29275). Put plainly: Adenosine receptor activity assay (Table 1), A2B activity. It counts as biochemical. To be noted: for Ratio: A2A activity to A2B activity (A2A/A2B); for pIC50: read-out: Ave A2B cAMP IC50.
A further assay concerns the target adenosine A2A receptor (Homo sapiens (Human), UniProt P29274). Put plainly: Adenosine receptor activity assay (Table 1), A2A activity. It counts as biochemical. The settings on record: read-out: Ave A2A cAMP IC50.

By pIC50 is commonly meant −log10 of the IC50, conventionally taken in molar units.

Sequence of adenosine A2A receptor (P29274 whole entry): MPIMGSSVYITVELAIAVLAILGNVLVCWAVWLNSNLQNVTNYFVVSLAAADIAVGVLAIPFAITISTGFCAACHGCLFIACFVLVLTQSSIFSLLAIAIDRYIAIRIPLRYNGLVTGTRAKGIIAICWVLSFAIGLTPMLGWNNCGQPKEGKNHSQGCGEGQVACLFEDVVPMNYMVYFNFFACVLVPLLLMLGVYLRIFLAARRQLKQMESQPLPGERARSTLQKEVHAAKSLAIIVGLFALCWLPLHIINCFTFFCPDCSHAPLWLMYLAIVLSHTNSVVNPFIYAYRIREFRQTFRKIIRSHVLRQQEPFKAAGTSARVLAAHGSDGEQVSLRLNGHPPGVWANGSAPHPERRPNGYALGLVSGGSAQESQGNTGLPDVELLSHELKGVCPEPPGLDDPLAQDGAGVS
Sequence of adenosine A2B receptor (P29275 whole entry): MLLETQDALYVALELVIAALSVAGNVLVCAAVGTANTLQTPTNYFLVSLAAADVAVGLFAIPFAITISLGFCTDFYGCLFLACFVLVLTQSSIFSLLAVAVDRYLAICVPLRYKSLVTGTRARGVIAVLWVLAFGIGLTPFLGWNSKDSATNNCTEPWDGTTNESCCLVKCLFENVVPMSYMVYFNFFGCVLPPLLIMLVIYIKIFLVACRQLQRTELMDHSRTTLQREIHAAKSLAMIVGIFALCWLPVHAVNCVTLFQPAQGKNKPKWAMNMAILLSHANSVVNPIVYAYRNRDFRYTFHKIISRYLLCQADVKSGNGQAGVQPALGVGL

As to `CC1CCN1C(=O)c1nc(N[C@@H](C)c2ccccn2)nc2ccsc12` (stereo partly drawn) [Example Z133, (2-Methylazetidin-1-yl)(2-(((S)-1-(pyridin-2-yl)ethyl)amino)thieno[3,2-d]pyrimidin-4-yl)methanone], the Ratio at adenosine A2B receptor is listed as 3.85. Further, the pIC50 at adenosine A2B receptor and on adenosine A2A receptor was 7.30 to 8.00 throughout.

Turning to `CC(C)(C)OC(=O)N1CCN(C(=O)c2nc(NCc3cncc(F)c3)nc3ccsc23)C1` [Example Z135, tert-Butyl 3-(2-(((5-fluoropyridin-3-yl)methyl)amino)thieno[3,2-d]pyrimidine-4-carbonyl)imidazolidine-1-carboxylate], at adenosine A2B receptor, the Ratio was 3.11 and the pIC50 was 6.30 to 7.00. Besides, the pIC50 at adenosine A2A receptor is under 6.30.

`COc1cc(F)cc(CNc2nc(C(=O)N3CC(C)(O)C3)c3sccc3n2)c1` [Example Z136, (2-((3-Fluoro-5-methoxybenzyl)amino)thieno[3,2-d]pyrimidin-4-yl)(3-hydroxy-3-methylazetidin-1-yl)methanone]: at adenosine A2B receptor, the Ratio stood at 11.51 and the pIC50 was 7.00 to 7.30. Besides, the pIC50 on adenosine A2A receptor was under 6.30.

Turning to `C[C@H](Nc1nc(C(=O)N2CCN(C(=O)OC(C)(C)C)C2)c2sccc2n1)c1cccnc1` [Example Z140, tert-Butyl (S)-3-(2-((1-(pyridin-3-yl)ethyl)amino)thieno[3,2-d]pyrimidine-4-carbonyl)imidazolidine-1-carboxylate], on adenosine A2B receptor, the Ratio is 1.36 and the pIC50 is under 6.30. For the same molecule, the pIC50 at adenosine A2A receptor was under 6.30.

Consider `NC(=O)c1cncc(CNc2nc(C(=O)N3CCCC3)c3sccc3n2)c1` [Example Z142, 5-(((4-(Pyrrolidine-1-carbonyl)thieno[3,2-d]pyrimidin-2-yl)amino)methyl)nicotinamide], for which, on adenosine A2B receptor, the Ratio is listed as 2.76 and the pIC50 is under 6.30. The negative logarithm of the IC50 (pIC50) at adenosine A2A receptor is under 6.30.

Consider `COCCNC(=O)c1nc(NCc2cncc(F)c2)nc2ccsc12` [Example Z146, 2-(((5-Fluoropyridin-3-yl)methyl)amino)-N-(2-methoxyethyl)thieno[3,2-d]pyrimidine-4-carboxamide], for which the pIC50 is 7.30 to 8.00 on adenosine A2B receptor and 6.30 to 7.00 at adenosine A2A receptor.

With `C[C@H](Nc1nc(C(=O)N2CCNC2)c2sccc2n1)c1cccnc1` [Example Z148, (S)-Imidazolidin-1-yl(2-((1-(pyridin-3-yl)ethyl)amino)thieno[3,2-d]pyrimidin-4-yl)methanone], the Ratio at adenosine A2B receptor is on record as 4.87. Further, the pIC50 at adenosine A2B receptor and on adenosine A2A receptor was under 6.30 in each case.

For `O=C(c1nc(NCc2cncc(F)c2)nc2ccsc12)N1CCNC1` [Example Z149, (2-(((5-Fluoropyridin-3-yl)methyl)amino)thieno[3,2-d]pyrimidin-4-yl)(imidazolidin-1-yl)methanone], at adenosine A2B receptor, the Ratio came out at 14.43 and the pIC50 is under 6.30. Moreover, at adenosine A2A receptor, the pIC50 was under 6.30.

Regarding `C[C@H](Nc1nc(C(=O)N[C@H]2CCNC2)c2sccc2n1)c1ccccn1` [Example Z150, 2-(((S)-1-(pyridin-2-yl)ethyl)amino)-N—((S)-pyrrolidin-3-yl)thieno[3,2-d]pyrimidine-4-carboxamide], on adenosine A2B receptor, the Ratio is on record as 7.05 and the negative logarithm of the IC50 (pIC50) was under 6.30. Besides, the pIC50 on adenosine A2A receptor is under 6.30.

On to `C[C@H](Nc1nc(C(=O)NCC2CCN(Cc3ccccc3)CC2)c2sccc2n1)c1ccccn1` [Example Z151, (S)—N-((1-Benzylpiperidin-4-yl)methyl)-2-((1-(pyridin-2-yl)ethyl)amino)thieno[3,2-d]pyrimidine-4-carboxamide], for which the pIC50 at adenosine A2B receptor and on adenosine A2A receptor was 6.30 to 7.00 throughout.

Regarding `O=C(NC1CCC1)c1nc(NCc2cnccn2)nc2ccsc12` [Example Z154, N-Cyclobutyl-2-((pyrazin-2-ylmethyl)amino)thieno[3,2-d]pyrimidine-4-carboxamide], the Ratio on adenosine A2B receptor is recorded as 4.52. Also, the pIC50 was 7.00 to 7.30 at adenosine A2B receptor and 6.30 to 7.00 at adenosine A2A receptor.
